The results in this text go back to patent publication US7491825B2, “Basic non-peptide bradykinin antagonists and pharmaceutical compositions therefrom” (Menarini Ricerche S.p.A., priority 2002, dated 2009).

Structures can show the parent of a compound that is named as a salt.

One may read the pKi as −log10 of the Ki, conventionally taken in molar units.

One test addresses T1, human B2 receptor (Homo sapiens, UniProt P30411).
T1 construct: human B2 receptor expressed in human fibroblasts W138; endogenous in cells; host or cells: human fibroblasts W138 (WI-38)
T1 sequence (P30411 1-391): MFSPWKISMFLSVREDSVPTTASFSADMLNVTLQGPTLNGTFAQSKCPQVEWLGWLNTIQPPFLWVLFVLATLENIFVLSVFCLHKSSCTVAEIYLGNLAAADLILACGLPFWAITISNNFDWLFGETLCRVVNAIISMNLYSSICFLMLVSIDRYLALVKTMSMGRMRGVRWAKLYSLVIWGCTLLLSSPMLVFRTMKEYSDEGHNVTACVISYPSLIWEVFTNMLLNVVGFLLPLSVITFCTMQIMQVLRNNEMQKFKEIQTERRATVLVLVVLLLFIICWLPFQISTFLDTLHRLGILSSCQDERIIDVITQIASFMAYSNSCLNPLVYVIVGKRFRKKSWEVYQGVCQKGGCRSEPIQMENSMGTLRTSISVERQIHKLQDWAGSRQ
Description: binding to the human B2 receptor expressed in human fibroblasts W138.
Details: not given
From the text: In the following the binding values are reported expressed as pKi.
For `CC[C@@](C)(NS(=O)(=O)c1ccc(Cl)c(COc2cccc3c(C)cc(C)nc23)c1Cl)C(=O)N1CCN(C(=O)C[C@@H](N)CCCNC(=N)N)CC1` [Example 70, (R)—N-[4-(3-(S)-Amino-6-guanidino-hexanoyl)-piperazine-1-carbonyl]-1-methyl-propyl]-2,4-dichloro-3-(2,4-dimethyl-quinolin-8-yloxymethyl)-benzenesulfonamide tris trifluoroacetate], the Ki is 631 pM. With `Cc1cc(C)c2cccc(OCc3c(Cl)ccc(S(=O)(=O)NC4(C(=O)N5CCN(C(=N)NCCCCCCN)CC5)CCCC4)c3Cl)c2n1` [Example 95, N-(6-Amino-hexyl)-4-{1-[2,4-dichloro-3-(2,4-dimethyl-quinolin-8-yloxymethyl)-benzenesulfonylamino]-cyclopentanecarbonyl}-piperazine-1-carboxamidine bis trifluoroacetate], the Ki is 501 pM.

`Cc1ccc2cccc(OCc3c(Cl)ccc(S(=O)(=O)NC(C)(C)C(=O)N4CCN(C(=O)CC5CCNCC5)CC4)c3Cl)c2n1` [Example 25, N-{2-[4-2-(Piperidin-4-yl-acetyl)-piperazin-1-yl]-1,1-dimethyl-2-oxo-ethyl}-2,4-dichloro-3-(2-methyl-8-quinolinoxymethyl)-benzenesulfonamide bis trifluoroacetate]: the Ki is 537 pM.

Staying with this test, now noted: human B2 receptor expressed in human fibroblasts W138.
In the case of “2,4-Dichloro-3-(2-methyl-quinolin-8-yloxymethyl)-benzenesulfinic acid (2-{4-[2-R-amino-5-(N′,N″-diethyl-guanidino)-pentanoyl]-piperazin-1-yl}-1,1-dimethyl-2-oxo-ethyl)-amide [Example 42]”, the pKi was determined as 9.4. Still for that read-out and setting: as for `Cc1cc(C)c2cccc(OCc3c(Cl)ccc(S(=O)(=O)NC4(C(=O)N5CCN(C(=O)CCCCC[N+](C)(C)C)CC5)CCCC4)c3Cl)c2n1` [Example 91, N-{1-[4-(6-Trimethylammonium-hexanoyl)-piperazine-1-carbonyl]-cyclopentyl}-2,4-dichloro-3-(2,4-dimethyl-quinolin-8-yloxymethyl)-benzenesulfonamide bis trifluoroacetate], the figure is 9.3; as for `Cc1cc(C)c2cccc(OCc3c(Cl)ccc(S(=O)(=O)NC4(C(=O)N5CCN(C(=O)C[C@@H](N)CCC[N+](C)(C)C)CC5)CCCC4)c3Cl)c2n1.Cc1cc(C)c2cccc(OCc3c(Cl)ccc(S(=O)(=O)NC4(C(=O)N5CCN(C(=O)C[C@@H](N)CCC[N+](C)(C)C)CC5)CCCC4)c3Cl)c2n1.O=C([O-])C(F)(F)F.O=C([O-])C(F)(F)F` [Example 107, [4-(S)-Amino-6-(4-{1-[2,4-dichloro-3-(2,4-dimethyl-quinolin-8-yloxymethyl)-benzenesulfonylamino]-cyclopentanecarbonyl}-piperazin-1-yl)-6-oxohexyl]-trimethylammonium bis trifluoroacetate], 9.7. Still for that read-out and setting: as for “N-[1-[4-(2-(S)-Dimethylamino-6-dimethylamino-hexanoyl)-piperazin-1-yl]-cyclopentyl]-2,4-dichloro-3-(2,4-dimethyl-quinolin-8-yloxymethyl)-benzenesulfonamide tris trifluoroacetate [Example 85]”, the figure is 9.3.

As for “N-[1-[4-(2-(S)-Trimethylammonium-6-trimethylammonium-hexanoyl)-piperazin-1-yl]-cyclopentyl]-2,4-dichloro-3-(2,4-dimethyl-quinolin-8-yloxymethyl)-benzenesulfonamide tris trifluoroacetate [Example 88]”, the pKi turned out to be 9.7.

The same test, now with this note: human B2 receptor expressed in human fibroblasts W138; read-out: pKi (converted).
`Cc1cc(C)c2cccc(OCc3c(Cl)ccc(S(=O)(=O)NC4(C(=O)N5CCN(C(=O)C[N+](C)(C)C)CC5)CCCC4)c3Cl)c2n1` [Example 82, N-{1-[4-(2-Trimethylammonium-acetyl)-piperazine-1-carbonyl]-cyclopentyl}-2,4-dichloro-3-(2,4-dimethyl-quinolin-8-yloxymethyl)-benzenesulfonamide bis trifluoroacetate]: the Ki was 631 pM.
